In patent publication US10669289B2, “Boronic acid derivatives” (MERCK PATENT GMBH, priority 2014, dated 2020):

Experiments:
[1] = molecular target: human immuno proteasome (LMP7) (Homo sapiens (Human), UniProt P28062); test: Determination of LMP7 activity (fluorescence intensity assay, Suc-LLVY-AMC); type: biochemical
Procedure: Determination of LMP7 Activity:
Measurement of LMP7 inhibition is performed in 384 well format based on fluorescence intensity assay.
(§1) Purified human immuno proteasome (0.25 nM) and serial diluted compounds in DMSO (range of concentrations from 30 μM to 15 pM) or controls are incubated for 20 minutes or 120 minutes (long incubation) at 25° C. in assay buffer containing 50 mM Tris pH 7.4, 0.03% SDS, 1 mM EDTA and 1% DMSO. The reaction is initiated by the addition of the fluorogenic peptide substrate, Suc-LLVY-AMC (Bachem 1-1395), at a concentration of 40 μM. After 60 minutes of incubation at 37° C., fluorescence intensity is measured at λex=350 nm and λem=450 nm with a fluorescence reader (Perkin Elmer Envision reader or equivalent).
(§2) Unless indicated otherwise the results are obtained after incubation for 20 minutes.

[2] = molecular target: human constitutive proteasome (Beta5) (Homo sapiens (Human), UniProt P28074); test: Determination of Beta5 activity (fluorescence intensity assay, Suc-LLVY-AMC); type: biochemical
Procedure: Determination of Beta5 Activity:
Measurement of Beta5 inhibition is performed in 384 well format based on fluorescence intensity assay.
as §1, with “constitutive” for “immuno”, “(1.25” for “(0.25”
as §2

[3] = LMP7 versus Beta5, incubation for 20 minutes
[4] = LMP7 versus Beta5, long incubation (120 min)

SMILES | Selectivity LMP7 vs Beta5 [1, 3] | IC50 ([1]; incubation for 20 minutes) [nM] | IC50 ([2]; incubation for 20 minutes) [µM] | Selectivity LMP7 vs Beta5 [1, 4] | IC50 ([1]; long incubation (120 min)) [nM] | IC50 ([2]; long incubation (120 min)) [µM]
C=CC(=O)N(CC(=O)N[C@@H](Cc1ccc(C)cc1C)B(O)O)c1ccccc1Cl [Compound No. 87, [(1R)-1-[[2-(2-chloro-N-prop-2-enoyl-anilino)acetyl]amino]-2-(2,4-dimethylphenyl)ethyl]boronic Acid] | +++++ (Selectivity ≥ 150) | < 50 | > 5 |  |  | 
C=CC(=O)N(CC(=O)N[C@@H](Cc1coc2ccccc12)B(O)O)c1ccccc1F [Compound No. 86, [(1R)-2-(benzofuran-3-yl)-1-[[2-(2-fluoro-N-prop-2-enoyl-anilino)acetyl]amino]ethyl]boronic Acid] |  |  |  | +++++ (Selectivity ≥ 150) | < 50 | 0.05 to 0.5
C=CC(=O)N(CC(=O)N[C@@H](Cc1ccc(C)cc1C)B(O)O)c1ccc(F)cc1 [Compound No. 2, [(1R)-2-(2,4-dimethylphenyl)-1-[[2-(4-fluoro-N-prop-2-enoyl-anilino)acetyl]amino]ethyl]boronic Acid] | ++++ (100 ≤ Selectivity < 150) | < 50 | 0.5 to 5 |  |  | 
C=CC(=O)N(CC(=O)N[C@@H](Cc1ccc(C)cc1C)B(O)O)c1ccccc1F [Compound No. 1, [(1R)-2-(2,4-dimethylphenyl)-1-[[2-(2-fluoro-N-prop-2-enoyl-anilino)acetyl]amino]ethyl]boronic Acid] | +++++ (Selectivity ≥ 150) | < 50 | > 5 |  |  | 
CCN(CC(=O)N[C@@H](Cc1ccc(C)cc1C)B(O)O)C(=O)/C=C/C(=O)OC [Compound No. 50, [(1R)-2-(2,4-dimethylphenyl)-1-[[2-[ethyl-[(E)-4-methoxy-4-oxo-but-2-enoyl]amino]acetyl]amino]ethyl]boronic Acid] |  |  |  | +++++ (Selectivity ≥ 150) | < 50 | > 5
C=CC(=O)N(CC(=O)N[C@@H](Cc1ccc(C)cc1C)B(O)O)c1ccc(OC(F)(F)F)cc1 [Compound No. 9, [(1R)-2-(2,4-dimethylphenyl)-1-[[2-[N-prop-2-enoyl-4-(trifluoromethoxy)anilino]acetyl]amino]ethyl]boronic Acid] | +++ (70 ≤ 100) | < 50 | 0.5 to 5 |  |  | 
C=CC(=O)N(CC(=O)N[C@@H](Cc1ccc(Cl)cc1Cl)B(O)O)C1CC1 [Compound No. 70, [(1R)-1-[[2-[cyclopropyl(prop-2-enoyl)amino]acetyl]amino]-2-(2,4-dichlorophenyl)ethyl]boronic Acid] |  |  |  | +++++ (Selectivity ≥ 150) | < 50 | > 5
C=CC(=O)N(CC(=O)N[C@@H](C[C@@H]1COc2ccccc21)B(O)O)c1ccccc1F [Compound No. 100, [(1R)-2-[(3S)-2,3-dihydrobenzofuran-3-yl]-1-[[2-(2-fluoro-N-prop-2-enoyl-anilino)acetyl]amino]ethyl]boronic Acid] |  |  |  | +++++ (Selectivity ≥ 150) | < 50 | 0.5 to 5
C=CC(=O)N(CC(=O)NC(Cc1ccsc1)B(O)O)c1ccccc1CC (stereo not drawn) [Compound No. 93, [1-[[2-(2-ethyl-N-prop-2-enoyl-anilino)acetyl]amino]-2-(3-thienyl)ethyl]boronic Acid] |  |  |  | +++++ (Selectivity ≥ 150) | 50 to 500 | > 5
C=CC(=O)N(CCC)CC(=O)N[C@@H](Cc1ccc(C)c(C)c1)B(O)O [Compound No. 5, [(1R)-2-(3,4-dimethylphenyl)-1-[[2-[prop-2-enoyl(propyl)amino]-acetyl]amino]ethyl]boronic Acid] | ++++ (100 ≤ Selectivity < 150) | 50 to 500 | > 5 |  |  | 
C=CC(=O)N(CC(=O)N[C@@H](Cc1ccsc1)B(O)O)c1ccc(C(=O)N(C)C)cc1 [Compound No. 103, [(1R)-1-[[2-[4-(dimethylcarbamoyl)-N-prop-2-enoyl-anilino]acetyl]amino]-2-(3-thienyl)ethyl]boronic Acid] |  |  |  | +++++ (Selectivity ≥ 150) | < 50 | 0.5 to 5
C=CC(=O)N(CC(=O)N[C@@H](Cc1ccc(C)cc1C)B(O)O)C(C)C [Compound No. 27, [(1R)-2-(2,4-dimethylphenyl)-1-[[2-[isopropyl(prop-2-enoyl)amino]-acetyl]amino]ethyl]boronic Acid] | +++ (70 ≤ 100) | 50 to 500 | > 5 |  |  | 
C=CC(=O)N(C)[C@@H](C)C(=O)N[C@@H](Cc1ccc(C)c(C)c1)B(O)O [Compound No. 68, [(1R)-2-(3,4-dimethylphenyl)-1-[[(2S)-2-[methyl(prop-2-enoyl)amino]propanoyl]amino]ethyl]boronic Acid] |  |  |  | +++++ (Selectivity ≥ 150) | 50 to 500 | > 5
C=CC(=O)N(CC(=O)N[C@@H](Cc1ccccc1)B(O)O)c1ccccc1F [Compound No. 44, [(1R)-1-[[2-(2-fluoro-N-prop-2-enoyl-anilino)acetyl]amino]-2-phenyl-ethyl]boronic Acid] |  |  |  | +++++ (Selectivity ≥ 150) | < 50 | > 5
C=CC(=O)N(CC(=O)N[C@@H](Cc1ccc(Cl)cc1Cl)B(O)O)CC(F)(F)F [Compound No. 60, [(1R)-2-(2,4-dichlorophenyl)-1-[[2-[prop-2-enoyl(2,2,2-trifluoroethyl)amino]acetyl]amino]ethyl]boronic Acid] |  |  |  | +++++ (Selectivity ≥ 150) | < 50 | > 5
C=CC(=O)N(CC)CC(=O)N[C@@H](Cc1ccc(F)cc1)B(O)O [Compound No. 30, [(1R)-1-[[2-[ethyl(prop-2-enoyl)amino]acetyl]amino]-2-(4-fluorophenyl)ethyl]boronic Acid] | +++ (70 ≤ 100) | 50 to 500 | > 5 |  |  | 
C/C=C\C(=O)N(CC)CC(=O)N[C@@H](Cc1ccc(C)cc1C)B(O)O [Compound No. 18, [(1R)-1-[[2-[[(Z)-but-2-enoyl]-ethyl-amino]acetyl]amino]-2-(2,4-dimethylphenyl)ethyl]boronic Acid] | +++ (70 ≤ 100) | 50 to 500 | 0.5 to 5 |  |  | 
C=CC(=O)N(CC)CC(=O)N[C@@H](Cc1ccc(Cl)cc1Cl)B(O)O [Compound No. 40, [(1R)-2-(2,4-dichlorophenyl)-1-[[2-[ethyl(prop-2-enoyl)amino]acetyl]amino]ethyl]boronic Acid] |  |  |  | +++++ (Selectivity ≥ 150) | 50 to 500 | > 5
C=CC(=O)N1CCC[C@H]1C(=O)N[C@@H](Cc1ccc(C)cc1C)B(O)O [Compound No. 58, [(1R)-2-(2,4-dimethylphenyl)-1-[[(2S)-1-prop-2-enoylpyrrolidine-2-carbonyl]amino]ethyl]boronic Acid] | ++ (50 ≤ Selectivity < 70) | 500 to 5000 | > 5 |  |  | 
Cc1ccc(C[C@H](NC(=O)CN(C)C(=O)/C=C/Cl)B(O)O)c(C)c1 [Compound No. 13, [(1R)-1-[[2-[[(E)-3-chloroprop-2-enoyl]-methyl-amino]acetyl]amino]-2-(2,4-dimethylphenyl)ethyl]boronic Acid] | +++++ (Selectivity ≥ 150) | < 50 | 0.5 to 5 |  |  | 
C=CC(=O)N(C)CC(=O)N[C@@H](Cc1ccc(C(F)(F)F)cc1C)B(O)O [Compound No. 67, [(1R)-1-[[2-[methyl(prop-2-enoyl)amino]acetyl]amino]-2-[2-methyl-4-(trifluoromethyl)phenyl]ethyl]boronic Acid] |  |  |  | +++++ (Selectivity ≥ 150) | < 50 | > 5
C=CC(=O)N(CC(=O)N[C@@H](Cc1ccc(C)cc1C)B(O)O)c1cccc(F)c1 [Compound No. 4, [(1R)-2-(2,4-dimethylphenyl)-1-[[2-(3-fluoro-N-prop-2-enoyl-anilino)acetyl]amino]ethyl]boronic Acid] | +++++ (Selectivity ≥ 150) | < 50 | 0.5 to 5 |  |  | 
C=CC(=O)N(CC(=O)N[C@@H](Cc1ccc(C)cc1C)B(O)O)C1CC1 [Compound No. 59, [(1R)-1-[[2-[cyclopropyl(prop-2-enoyl)amino]acetyl]amino]-2-(2,4-dimethylphenyl)ethyl]boronic Acid] |  |  |  | +++++ (Selectivity ≥ 150) | < 50 | > 5
C=CC(=O)N(CC(=O)N[C@@H](Cc1ccc(Cl)cc1)B(O)O)c1ccccc1F [Compound No. 55, [(1R)-2-(4-chlorophenyl)-1-[[2-(2-fluoro-N-prop-2-enoyl-anilino)acetyl]amino]ethyl]boronic Acid] |  |  |  | +++++ (Selectivity ≥ 150) | < 50 | 0.5 to 5
